The first experiment concerns the target T1, human PAH with the R408W mutation (A375 R408W cells) (Homo sapiens, UniProt P00439, R408W).
T1 construct: expressed in transfected cells
T1 sequence (P00439 1-452 R408W): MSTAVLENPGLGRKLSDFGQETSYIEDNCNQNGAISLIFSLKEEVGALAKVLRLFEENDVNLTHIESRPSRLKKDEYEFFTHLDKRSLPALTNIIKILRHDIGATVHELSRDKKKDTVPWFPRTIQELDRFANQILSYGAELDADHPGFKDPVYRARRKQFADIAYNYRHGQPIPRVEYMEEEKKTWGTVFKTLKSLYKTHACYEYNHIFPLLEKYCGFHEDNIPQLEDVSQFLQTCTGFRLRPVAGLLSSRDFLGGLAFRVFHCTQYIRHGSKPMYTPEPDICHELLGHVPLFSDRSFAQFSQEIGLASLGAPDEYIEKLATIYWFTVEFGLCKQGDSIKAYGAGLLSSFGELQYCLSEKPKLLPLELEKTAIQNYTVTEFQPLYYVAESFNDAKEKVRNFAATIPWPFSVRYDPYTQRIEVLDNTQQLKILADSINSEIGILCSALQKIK
Description: Cell Based Phenylalanine Flux Assay. To be noted: A375 R408W cells; 24 hrs with compound, then 20 μM sepiapterin and 800 μM 13C9,15N-Phenylalanine for 4 hours; 13C-Tyrosine by LC-MS; average where tested multiple times. The method, boiled down:
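A375 cells stably expressing lentiviral human PAH R408W were treated with compounds (10-point 2-fold dilutions, 0.5% DMSO, duplicate) for 24 h at 37 °C. Then 20 μM sepiapterin and 800 μM 13C9,15N-Phe were added for 4 h; media 13C-Tyr was measured by LC-MS to give AC50.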
Turning to `Cc1cccc2nc([C@H]3c4nc[nH]c4CCN3C(=O)c3nnc(-c4ccccn4)o3)oc12` [Example 568, (R)-(4-(7-methylbenzo[d]oxazol-2-yl)-6,7-dihydro-1H-imidazo[4,5-c]pyridin-5(4H)-yl)(5-(pyridin-2-yl)-1,3,4-oxadiazol-2-yl)methanone], the AC50 lay in the range of 1000 to 5000 nM.
Same read-out and setting: then `Cc1cccc2oc([C@H]3c4nc[nH]c4CCN3C(=O)c3oc(C(C)(C)O)nc3C(F)F)nc12` [Example 362, (R)-(4-(difluoromethyl)-2-(2-hydroxypropan-2-yl)oxazol-5-yl)(4-(4-methylbenzo[d]oxazol-2-yl)-6,7-dihydro-1H-imidazo[4,5-c]pyridin-5(4H)-yl)methanone], with 1000 to 5000 nM.
The same measure, in the same setting: then `CC(C)(O)c1nc(C(F)F)c(C(=O)N2CCc3[nH]cnc3[C@@H]2c2nc3cccc(OC(F)(F)F)c3o2)o1` [Example 530, (R)-(4-(difluoromethyl)-2-(2-hydroxypropan-2-yl)oxazol-5-yl)(4-(7-(trifluoromethoxy)benzo[d]oxazol-2-yl)-6,7-dihydro-1H-imidazo[4,5-c]pyridin-5(4H)-yl)methanone], with 500 to 1000 nM.
Same read-out and setting: then `Cc1nc(-c2ccn(C)n2)oc1C(=O)N1CCc2[nH]cnc2[C@@H]1c1nc2cc(F)ccc2o1` [Example 826, (R)-(4-(5-fluorobenzo[d]oxazol-2-yl)-6,7-dihydro-1H-imidazo[4,5-c]pyridin-5(4H)-yl)(4-methyl-2-(1-methyl-1H-pyrazol-3-yl)oxazol-5-yl)methanone], with at least 5000 nM; and `O=C(c1oc(-c2ccncc2)nc1C(F)F)N1CCc2[nH]cnc2[C@H]1c1nc2cc(F)ccc2o1` [Example 421, (S)-(4-(difluoromethyl)-2-(pyridin-4-yl)oxazol-5-yl)(4-(5-fluorobenzo[d]oxazol-2-yl)-6,7-dihydro-1H-imidazo[4,5-c]pyridin-5(4H)-yl)methanone], with at most 500 nM; and `Cc1ccc2oc([C@H]3c4nc[nH]c4CCN3C(=O)c3nnc(-c4cc[nH]n4)o3)nc2c1` [Example 356, (R)-(5-(1H-pyrazol-3-yl)-1,3,4-oxadiazol-2-yl)(4-(5-methylbenzo[d]oxazol-2-yl)-6,7-dihydro-1H-imidazo[4,5-c]pyridin-5(4H)-yl)methanone], with 1000 to 5000 nM.
In the case of `Cc1cccc2nc([C@H]3c4nc[nH]c4CCN3C(=O)c3oc(C(C)(C)O)nc3C(F)F)oc12` [Example 391, (R)-(4-(difluoromethyl)-2-(2-hydroxypropan-2-yl)oxazol-5-yl)(4-(7-methylbenzo[d]oxazol-2-yl)-6,7-dihydro-1H-imidazo[4,5-c]pyridin-5(4H)-yl)methanone], the AC50 is 1000 to 5000 nM.
The same measure, in the same setting: with `O=C(c1oc(-c2ccccn2)nc1C(F)(F)F)N1CCc2[nH]cnc2[C@@H]1c1nc2cc(F)ccc2o1` [Example 50, (R)-(4-(5-fluorobenzo[d]oxazol-2-yl)-6,7-dihydro-1H-imidazo[4,5-c]pyridin-5(4H)-yl)(2-(pyridin-2-yl)-4-(trifluoromethyl)oxazol-5-yl)methanone] the figure was at most 500 nM; with `O=C(c1oc(-c2ccccn2)nc1C(F)F)N1CCc2[nH]cnc2[C@H]1c1nc2cc(F)ccc2o1` [Example 85, (S)-(4-(difluoromethyl)-2-(pyridin-2-yl)oxazol-5-yl)(4-(5-fluorobenzo[d]oxazol-2-yl)-6,7-dihydro-1H-imidazo[4,5-c]pyridin-5(4H)-yl)methanone], at most 500 nM.
Still for that read-out and setting: with `Cn1ccc(-c2nc(C(F)F)c(C(=O)N3CCc4[nH]cnc4[C@H]3c3nc4ccccc4o3)o2)n1` [Example 761, (S)-(4-(benzo[d]oxazol-2-yl)-6,7-dihydro-1H-imidazo[4,5-c]pyridin-5(4H)-yl)(4-(difluoromethyl)-2-(1-methyl-1H-pyrazol-3-yl)oxazol-5-yl)methanone] the figure was at most 500 nM.
Same read-out and setting: with `O=C(CC1CC1)N1CCc2[nH]cnc2[C@@H]1c1nc2cc(F)ccc2o1` [Example 38, (R)-2-cyclopropyl-1-(4-(5-fluorobenzo[d]oxazol-2-yl)-6,7-dihydro-1H-imidazo[4,5-c]pyridin-5(4H)-yl)ethanone] the figure was 1000 to 5000 nM; with `O=C(c1ocnc1C(F)(F)F)N1CCc2[nH]cnc2[C@@H]1c1nc2ccccc2o1` [Example 798, (R)-(4-(benzo[d]oxazol-2-yl)-6,7-dihydro-1H-imidazo[4,5-c]pyridin-5(4H)-yl)(4-(trifluoromethyl)oxazol-5-yl)methanone], 500 to 1000 nM; with `O=C(c1ccnn1C1CC1)N1CCc2[nH]cnc2[C@H]1c1nc2ccccc2o1` [Example 725, (S)-(4-(benzo[d]oxazol-2-yl)-6,7-dihydro-1H-imidazo[4,5-c]pyridin-5(4H)-yl)(1-cyclopropyl-1H-pyrazol-5-yl)methanone], at most 500 nM.
Turning to `COc1ccc2oc([C@@H]3c4nc[nH]c4CCN3C(=O)c3nnc(-c4cnn(C)c4)o3)nc2c1` [Example 553, (S)-(4-(5-methoxybenzo[d]oxazol-2-yl)-6,7-dihydro-1H-imidazo[4,5-c]pyridin-5(4H)-yl)(5-(1-methyl-1H-pyrazol-4-yl)-1,3,4-oxadiazol-2-yl)methanone], the half-maximal activity concentration (AC50) is 500 to 1000 nM.
Still for that read-out and setting: then `Cn1nc(Cl)nc1C(=O)N1CCc2[nH]cnc2[C@H]1c1nc2ccc(F)cc2o1` [Example 343, (S)-(3-chloro-1-methyl-1H-1,2,4-triazol-5-yl)(4-(6-fluorobenzo[d]oxazol-2-yl)-6,7-dihydro-1H-imidazo[4,5-c]pyridin-5(4H)-yl)methanone], with 1000 to 5000 nM; and `COc1cccc2nc([C@H]3c4nc[nH]c4CCN3C(=O)c3ocnc3C(F)F)oc12` [Example 458, (R)-(4-(difluoromethyl)oxazol-5-yl)(4-(7-methoxybenzo[d]oxazol-2-yl)-6,7-dihydro-1H-imidazo[4,5-c]pyridin-5(4H)-yl)methanone], with at most 500 nM; and `O=C(c1nnc(-c2ccn(C(F)F)n2)o1)N1CCc2[nH]cnc2[C@H]1c1nc2ccccc2o1` [Example 846, (S)-(4-(benzo[d]oxazol-2-yl)-6,7-dihydro-1H-imidazo[4,5-c]pyridin-5(4H)-yl)(5-(1-(difluoromethyl)-1H-pyrazol-3-yl)-1,3,4-oxadiazol-2-yl)methanone], with at most 500 nM.
As for `CN1CCN(c2ccc3c(C(=O)N4CCc5[nH]cnc5[C@@H]4c4nc5c(F)cccc5o4)cnn3c2)CC1` [Example 476, (R)-(4-(4-fluorobenzo[d]oxazol-2-yl)-6,7-dihydro-1H-imidazo[4,5-c]pyridin-5(4H)-yl)(6-(4-methylpiperazin-1-yl)pyrazolo[1,5-a]pyridin-3-yl)methanone], the AC50 was 1000 to 5000 nM.

The experiment is the same for the next values; noted with them: A375 cells expressing R408W PAH; 24 hrs with compound, then 20 μM sepiapterin and 800 μM 13C9,15N-Phenylalanine for 4 hours; 13C-Tyrosine by LC-MS; average where tested multiple times.
With `O=C(CCc1ncco1)N1CCc2[nH]cnc2C1c1nc2cc(F)ccc2o1` (stereo not drawn), the concentration at half-maximal activity (AC50) was 1000 to 5000 nM.
As to `O=C(CCc1cnco1)N1CCc2[nH]cnc2C1c1nc2ccc(F)cc2o1` (stereo not drawn), the AC50 is 1000 to 5000 nM.
Same read-out and setting: then `Cn1nc(C(F)F)nc1C(=O)N1CCc2[nH]cnc2C1c1nc2cc(F)ccc2o1` (stereo not drawn), with 1000 to 5000 nM; and `O=C(c1ccnn1C(F)F)N1CCc2[nH]cnc2C1c1nc2c(F)c(F)ccc2o1` (stereo not drawn), with 1000 to 5000 nM; and `COc1cccc2oc(C3c4nc[nH]c4CCN3C(=O)c3cnc(C(C)(C)O)o3)nc12` (stereo not drawn), with 1000 to 5000 nM.
With `CN(C)Cc1ncc(C(=O)N2CCc3[nH]cnc3C2c2nc3cc(F)ccc3o2)o1` (stereo not drawn), the AC50 is at least 5000 nM.

The values above are taken from patent US20250171437A1 (Agios Pharmaceuticals,Inc., priority 2022, published 2025).
